The target of assay [1] is GABRA1-GABRB3-GABRG2 construct in HEK cells (Homo sapiens (Human), UniProt P14867+P18507). The assay is described as follows: QPatch electrophysiological recording, % enhancement of GABA current (α1 PAM). Type of assay: cell-based. The conditions noted are these: % enhancement of GABA current at approximately EC10 GABA, −60 mV, whole-cell patch clamp. A general note: Patch clamp records ionic current or voltage across a cell membrane.

Assay [2] deals with human recombinant GABA A receptor containing the alpha2, beta2, and gamma2 subunits (Homo sapiens (Human), UniProt P18507+P47869). The experiment in a line: Radioligand competition binding assay with [3H]Ro-15-1788 (Flumazenil). The conditions noted are these: [3H]flumazenil competition, HEK cell membranes, geometric mean of at least two replicates; read-out: GABA-α2 Ki. How it is done: The affinity of the test compounds was determined by radioligand competition binding assay, using the known compound [3H]Ro-15-1788 (Flumazenil) (Perkin Elmer, 85.4 Ci/mmol) and the human recombinant GABA A receptor containing the alpha2, beta2, and gamma2 subunits.
Membranes were prepared from HEK cells expressing hGABA A alpha2beta2-gamma2 receptor, and validated to ascertain protein concentration, receptor expression and to determine the Kd of the flumazenil as well as the Ki of a standard set of compounds before being used to test new compounds.
The assay was carried out in 96 well plates; testing compounds using a 10 point semi-log dilution range from 19 uM top concentration. 100 ul of radioligand and 100 ul of membrane in 50 mM Tris-HCl and 0.05% F127 with 1 ul of test compound was incubated for 2 hours to allow the reaction to achieve equilibrium, and then harvested onto filter plates, dried and counted on a TopCount NXT. The data was analysed, and the Ki values were presented as the geometric mean of at least two replicates.
(In general: Loss of bound radioactivity is the signal in a displacement assay; it reports binding, not function.)

For assay [3], the target named is GABRA2-GABRB2-GABRG2 chloride currents in HEK cells (Homo sapiens (Human), UniProt P18507+P47869). The experiment in a line: QPatch electrophysiological recording, % enhancement of GABA current (α2 PAM). Type of assay: cell-based. The conditions noted are these: % enhancement of GABA current at approximately EC10 GABA, −60 mV, whole-cell patch clamp. As to the method: Human Embryonic Kidney (HEK) cells were transfected with a GABRA2-GABRB2-GABRG2 construct using standard techniques. Cells stably expressing the GABRA2-GABRB2-GABRG2 constructs were identified by their resistance to Geneticin G-418 (320 μg/ml), Hygromycin (160 μg/ml) and Zeocin (40 μg/ml). Clones were screened for expression using the BD Pathway 855 imaging system (BD Biosciences, Rockville, Md., USA) and QPatch automated electrophysiology platform (Sophion, Copenhagen, Denmark). […]
GABRA2-GABRB2-GABRG2 chloride currents in HEK cells were measured using the whole-cell configuration of the patch-clamp technique (Hamill et al., 1981). […]
All compounds were dissolved in dimethyl sulfoxide to make 30 mM or 10 mM stock solutions, which were then diluted to 1000 times the desired final concentration in dimethyl sulfoxide. […] Currents were recorded at −60 mV, using an approximately EC10 concentration of gamma-aminobutyric acid (GABA). […]
Compound effect (% enhancement of gamma-aminobutyric acid current) was calculated using the following formula: [((peak modulator current amplitude-leak)−(GABA current amplitude-leak))/(GABA current amplitude-leak)]*100, […]

Each structure is given as a SMILES string.

Data on 2 molecules can be found in US10538523B2, “4-(biphen-3-yl)-1H-pyrazolo[3,4-c]pyridazine derivatives of formula (I) as GABA receptor modulators for use in the treatment of epilepsy and pain” (PFIZER LIMITED, priority 2015, dated 2020).

Consider `CCn1ncc2c(-c3ccc(F)c(-c4ccc(S(=O)(=O)CC)cc4OC)c3)cnnc21` [Example 1, 4-(4′-Ethanesulfonyl-6-fluoro-2′-methoxybiphenyl-3-yl)-1-ethyl-1H-pyrazolo[3,4-c]pyridazine], for which the “α1 PAM” value in assay [1] was 18%. The Ki in assay [2] is less than 0.6 nM. Moreover, in assay [3], the “α2 PAM” value is 109%.
On to `CCn1ncc2c(-c3ccc(F)c(-c4ccc(S(=O)(=O)CC)cc4)c3)cnnc21` [Example 2, 4-(4′-Ethanesulfonyl-6-fluorobiphenyl-3-yl)-1-ethyl-1H-pyrazolo[3,4-c]pyridazine], for which, in assay [1], the “α1 PAM” value was 52%. In addition, the inhibition constant Ki in assay [2] was found to be 17.5 nM. The “α2 PAM” value in assay [3] worked out at 109%.

By Ki is commonly meant the dissociation constant of the complex between target and ligand, obtained from inhibition or displacement.
